{"source": "patent US11730746B2", "about": "“17beta-heterocyclyl-digitalis like compounds for the treatment of heart failure” (priority 2018, dated 2023)", "key": {"Adrenergic α1A": {"target": "T1, Adrenergic α1A (Rattus norvegicus, UniProt P43140)", "T1 construct": "Eurofins 203100; host or cells: crude membrane preparation", "T1 sequence (P43140 whole entry)": "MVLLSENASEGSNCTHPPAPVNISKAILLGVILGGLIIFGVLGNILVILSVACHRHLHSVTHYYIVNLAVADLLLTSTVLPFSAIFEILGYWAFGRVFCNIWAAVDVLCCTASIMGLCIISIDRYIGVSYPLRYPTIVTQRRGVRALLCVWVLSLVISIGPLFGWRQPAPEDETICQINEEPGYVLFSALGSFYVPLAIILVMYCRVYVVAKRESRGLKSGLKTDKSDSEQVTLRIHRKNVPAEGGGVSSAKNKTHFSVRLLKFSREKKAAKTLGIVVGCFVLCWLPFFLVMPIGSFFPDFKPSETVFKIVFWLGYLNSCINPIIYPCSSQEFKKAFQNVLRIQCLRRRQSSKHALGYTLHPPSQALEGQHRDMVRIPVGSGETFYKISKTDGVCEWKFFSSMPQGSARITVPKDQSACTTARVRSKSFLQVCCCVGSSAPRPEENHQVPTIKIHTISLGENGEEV", "assay": "Receptor binding 203100", "experimental": "(§1) Radioligand binding to a panel of receptors was carried out by Eurofins on crude membrane preparations according to published procedures and by using appropriate reference standard (Eurofins, CVie 101 compound code PT #1207859, study #AB76416, quote #68407-1, for Cvie Therapeutics Limited, Taiwan (R.OC.) on Mar. 5, 2017). CVie 101 was tested at the concentration of 10 μM. No significant interaction was documented, except for Sodium Channel, site 2 from rat (cat #279510), where a significant response (≥50%) was noted (Table 7)."}, "Adenosine A1": {"target": "T2, Adenosine A1 (Homo sapiens, UniProt P30542)", "T2 construct": "Eurofins 200510; host or cells: crude membrane preparation", "T2 sequence (P30542 whole entry)": "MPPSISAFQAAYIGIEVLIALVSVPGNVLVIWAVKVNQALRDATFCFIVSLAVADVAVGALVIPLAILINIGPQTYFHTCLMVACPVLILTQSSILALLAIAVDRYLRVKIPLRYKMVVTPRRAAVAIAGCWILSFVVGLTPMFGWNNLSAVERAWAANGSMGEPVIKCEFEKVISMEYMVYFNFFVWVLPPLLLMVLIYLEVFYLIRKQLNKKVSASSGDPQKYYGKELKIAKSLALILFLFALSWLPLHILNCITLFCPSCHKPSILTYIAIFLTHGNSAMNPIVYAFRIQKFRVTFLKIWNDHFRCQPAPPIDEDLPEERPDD", "assay": "Receptor binding 200510", "experimental": "as §1"}, "[1]": {"system": "guinea pig isolated cardiomyocytes", "assay": "SR Ca2+ uptake function (loading protocol) in isolated ventricular cardiomyocytes", "assay_type": "cell-based", "conditions": "100 nM", "experimental": "(§2) The compounds were characterized for their effect on (i) SR Ca^2+ uptake function, (ii) action potential (AP) in myocytes freshly dissociated from guinea-pig ventricles by retrograde coronary perfusion with enzymatic solution (Rocchetti M et al. J Pharmacol Exper Therap 2005; 313(1):207-215).\nDrug effects on SR Ca^2+ uptake rate were evaluated with an SR “loading protocol” specifically devised to rule out the contribution of the Na/Ca exchanger (NCX) and to assess the uptake rate starting at low levels of SR Ca^2+ loading. Under voltage-clamp conditions, intracellular Ca^2+ concentration was dynamically measured by epifluorescence (Fluo4-AM). Membrane current, whose time-dependent component mainly reflected ICaL, was simultaneously recorded. The SR loading protocol consisted in emptying the SR (by a brief caffeine pulse) and then progressively refilling it by voltage steps activating Ca^2+ influx through the sarcolemmal Ca^2+ channel (ICaL). NCX was blocked by omission of Na^+ from intracellular and extracellular solutions. The procedure is in agreement with published methods, with minor modifications (Rocchetti M et al. J Pharmacol Exper Therap 2005; 313(1):207-215).\nDrug effects on SR Ca^2+ uptake were analysed by considering multiple parameters: 1) the rate at which Ca^2+ transient (CaT) amplitude increased during the loading protocol, which reflects the rate at which the SR refilled and 2) the time constant of cytosolic Ca^2+ decay (Tdecay) within each pulse, reflecting net Ca^2+ transport rate (by SERCA2a) across the SR membrane (a decrease in Tdecay corresponds to enhanced SR Ca^2+ uptake)."}, "Sigma σ2": {"target": "T3, Sigma σ2 (Homo sapiens, UniProt Q5BJF2)", "T3 construct": "Eurofins (contract assay) 299007", "T3 sequence (Q5BJF2 whole entry)": "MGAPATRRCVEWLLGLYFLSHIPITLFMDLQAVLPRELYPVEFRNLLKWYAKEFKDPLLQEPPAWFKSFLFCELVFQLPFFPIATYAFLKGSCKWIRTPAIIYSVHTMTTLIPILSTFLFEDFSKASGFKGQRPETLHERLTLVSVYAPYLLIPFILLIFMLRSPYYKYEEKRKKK", "assay": "Receptor binding 299007", "experimental": "as §1"}, "Glucocorticoid": {"target": "T4, Glucocorticoid (Homo sapiens, UniProt P04150)", "T4 construct": "Eurofins (contract assay) 232030", "T4 sequence (P04150 whole entry)": "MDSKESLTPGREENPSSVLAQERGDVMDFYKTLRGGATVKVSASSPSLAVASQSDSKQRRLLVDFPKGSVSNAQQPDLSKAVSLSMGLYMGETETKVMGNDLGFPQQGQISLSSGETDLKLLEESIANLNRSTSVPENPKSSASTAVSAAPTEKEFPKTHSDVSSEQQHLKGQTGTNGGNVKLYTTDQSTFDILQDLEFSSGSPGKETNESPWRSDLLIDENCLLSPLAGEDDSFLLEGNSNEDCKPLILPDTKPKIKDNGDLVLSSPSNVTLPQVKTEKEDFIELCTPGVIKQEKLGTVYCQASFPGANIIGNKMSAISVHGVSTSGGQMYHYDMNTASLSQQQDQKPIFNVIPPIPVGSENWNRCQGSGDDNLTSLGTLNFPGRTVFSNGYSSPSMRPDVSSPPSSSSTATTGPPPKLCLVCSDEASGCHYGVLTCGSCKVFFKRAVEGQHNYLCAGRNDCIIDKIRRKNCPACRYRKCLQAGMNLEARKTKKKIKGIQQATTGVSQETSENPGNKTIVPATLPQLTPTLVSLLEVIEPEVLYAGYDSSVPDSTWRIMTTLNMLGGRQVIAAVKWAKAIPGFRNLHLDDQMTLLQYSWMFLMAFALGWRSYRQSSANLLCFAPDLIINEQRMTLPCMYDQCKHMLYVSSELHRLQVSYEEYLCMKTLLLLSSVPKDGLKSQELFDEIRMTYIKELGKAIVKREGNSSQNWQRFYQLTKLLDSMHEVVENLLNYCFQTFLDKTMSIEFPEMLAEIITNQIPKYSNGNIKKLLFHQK", "assay": "Receptor binding 232030", "experimental": "as §1"}, "[2]": {"target": "T5, Peptidase, Angiotensin Converting Enzyme (Oryctolagus cuniculus, UniProt P12822)", "T5 construct": "Eurofins 107300", "T5 sequence (P12822 34-1310)": "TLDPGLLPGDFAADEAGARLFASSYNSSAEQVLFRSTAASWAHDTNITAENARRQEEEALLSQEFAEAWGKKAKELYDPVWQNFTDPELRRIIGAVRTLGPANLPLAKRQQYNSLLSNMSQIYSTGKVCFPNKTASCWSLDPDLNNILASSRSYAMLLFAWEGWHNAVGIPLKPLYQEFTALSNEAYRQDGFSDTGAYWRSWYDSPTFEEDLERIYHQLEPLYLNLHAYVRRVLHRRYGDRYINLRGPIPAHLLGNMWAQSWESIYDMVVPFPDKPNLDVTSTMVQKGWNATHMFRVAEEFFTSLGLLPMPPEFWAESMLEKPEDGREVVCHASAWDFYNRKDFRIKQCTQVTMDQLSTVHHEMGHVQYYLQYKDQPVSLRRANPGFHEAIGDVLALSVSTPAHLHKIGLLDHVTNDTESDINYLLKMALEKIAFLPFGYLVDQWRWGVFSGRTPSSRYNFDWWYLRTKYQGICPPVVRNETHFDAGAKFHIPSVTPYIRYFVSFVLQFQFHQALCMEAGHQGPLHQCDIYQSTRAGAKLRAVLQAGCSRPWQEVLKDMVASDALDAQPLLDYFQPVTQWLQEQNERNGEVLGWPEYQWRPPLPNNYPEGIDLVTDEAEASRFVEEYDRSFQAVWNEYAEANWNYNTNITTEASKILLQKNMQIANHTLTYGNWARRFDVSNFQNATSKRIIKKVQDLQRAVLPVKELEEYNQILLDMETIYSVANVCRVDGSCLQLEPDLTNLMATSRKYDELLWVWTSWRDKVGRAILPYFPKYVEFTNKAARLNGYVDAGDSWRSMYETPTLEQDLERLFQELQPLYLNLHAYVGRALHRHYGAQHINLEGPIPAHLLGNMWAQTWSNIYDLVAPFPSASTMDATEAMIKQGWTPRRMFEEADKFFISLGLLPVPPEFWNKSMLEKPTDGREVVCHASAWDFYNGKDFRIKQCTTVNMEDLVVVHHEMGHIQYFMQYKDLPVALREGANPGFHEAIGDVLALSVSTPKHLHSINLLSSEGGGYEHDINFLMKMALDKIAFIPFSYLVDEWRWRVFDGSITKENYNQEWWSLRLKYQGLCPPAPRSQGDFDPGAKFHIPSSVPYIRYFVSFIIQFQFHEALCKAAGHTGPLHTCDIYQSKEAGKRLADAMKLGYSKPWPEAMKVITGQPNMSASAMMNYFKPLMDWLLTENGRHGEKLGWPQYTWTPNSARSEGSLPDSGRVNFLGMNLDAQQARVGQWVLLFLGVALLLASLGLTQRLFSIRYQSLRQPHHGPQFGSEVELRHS", "assay": "Eurofins panel 107300", "assay_type": "biochemical, rabbit"}, "Insulin": {"target": "T6, Insulin (Rattus norvegicus, UniProt P15127)", "T6 construct": "Eurofins (contract assay) 243000", "T6 sequence (P15127 27-759 limits assumed)": "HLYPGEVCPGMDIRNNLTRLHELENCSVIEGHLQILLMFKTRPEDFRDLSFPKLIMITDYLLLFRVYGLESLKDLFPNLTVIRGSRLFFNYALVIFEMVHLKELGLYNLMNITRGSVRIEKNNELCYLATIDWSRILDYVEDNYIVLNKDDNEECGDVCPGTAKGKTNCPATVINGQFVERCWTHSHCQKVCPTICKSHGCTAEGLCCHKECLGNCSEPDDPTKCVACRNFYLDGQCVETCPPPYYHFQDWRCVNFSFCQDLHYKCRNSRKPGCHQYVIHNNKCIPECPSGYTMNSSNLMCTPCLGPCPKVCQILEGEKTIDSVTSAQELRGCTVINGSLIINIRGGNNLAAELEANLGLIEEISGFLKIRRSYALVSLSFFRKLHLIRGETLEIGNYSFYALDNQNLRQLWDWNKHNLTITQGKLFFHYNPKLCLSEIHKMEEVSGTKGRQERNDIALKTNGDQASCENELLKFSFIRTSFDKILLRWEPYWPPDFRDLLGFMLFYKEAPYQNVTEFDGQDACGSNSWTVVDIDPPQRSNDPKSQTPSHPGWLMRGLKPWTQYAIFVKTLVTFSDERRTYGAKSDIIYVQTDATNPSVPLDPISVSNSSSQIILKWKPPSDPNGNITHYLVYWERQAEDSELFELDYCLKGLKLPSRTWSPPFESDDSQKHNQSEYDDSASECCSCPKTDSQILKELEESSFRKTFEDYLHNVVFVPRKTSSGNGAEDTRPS", "T6 sequence (P15127 764-1383 partner limits assumed)": "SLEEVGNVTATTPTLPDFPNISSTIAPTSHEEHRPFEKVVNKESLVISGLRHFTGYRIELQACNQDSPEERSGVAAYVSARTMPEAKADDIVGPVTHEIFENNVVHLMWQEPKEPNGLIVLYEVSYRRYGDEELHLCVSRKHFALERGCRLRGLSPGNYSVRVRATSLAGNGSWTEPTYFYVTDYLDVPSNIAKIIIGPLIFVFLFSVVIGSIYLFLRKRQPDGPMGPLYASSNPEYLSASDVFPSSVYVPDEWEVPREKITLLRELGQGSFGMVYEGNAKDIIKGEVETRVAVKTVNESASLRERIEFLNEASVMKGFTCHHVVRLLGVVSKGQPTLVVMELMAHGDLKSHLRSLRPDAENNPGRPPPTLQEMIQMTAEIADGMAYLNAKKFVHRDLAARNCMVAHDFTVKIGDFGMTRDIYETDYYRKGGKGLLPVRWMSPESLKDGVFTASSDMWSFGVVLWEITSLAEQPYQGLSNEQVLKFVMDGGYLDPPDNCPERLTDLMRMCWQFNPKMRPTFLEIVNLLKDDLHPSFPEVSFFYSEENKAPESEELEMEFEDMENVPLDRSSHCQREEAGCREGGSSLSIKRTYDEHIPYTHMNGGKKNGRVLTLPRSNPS", "assay": "Receptor binding 243000", "experimental": "as §1"}, "[3]": {"system": "Calcium Channel L-type, Dihydropyridine", "assay": "Receptor binding 214600", "design": "species or system rat", "conditions": "10 μM", "experimental": "as §1"}, "Adrenergic β1": {"target": "T7, Adrenergic β1 (Homo sapiens, UniProt P08588)", "T7 construct": "Eurofins 204010; host or cells: crude membrane preparation", "T7 sequence (P08588 whole entry)": "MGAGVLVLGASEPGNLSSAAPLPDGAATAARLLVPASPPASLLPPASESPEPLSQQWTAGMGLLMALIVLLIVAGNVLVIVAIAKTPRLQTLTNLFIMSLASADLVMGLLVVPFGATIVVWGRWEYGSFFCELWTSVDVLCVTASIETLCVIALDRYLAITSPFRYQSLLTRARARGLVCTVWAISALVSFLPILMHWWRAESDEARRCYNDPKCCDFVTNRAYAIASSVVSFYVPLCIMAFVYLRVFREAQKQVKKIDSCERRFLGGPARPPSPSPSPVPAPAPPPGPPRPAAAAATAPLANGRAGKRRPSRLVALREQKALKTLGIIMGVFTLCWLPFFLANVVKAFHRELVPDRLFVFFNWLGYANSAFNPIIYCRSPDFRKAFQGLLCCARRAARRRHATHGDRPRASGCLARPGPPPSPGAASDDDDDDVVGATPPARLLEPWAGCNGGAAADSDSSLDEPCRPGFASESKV", "assay": "Receptor binding 204010", "experimental": "as §1"}, "[4]": {"system": "guinea pig isolated cardiomyocytes", "assay": "Action potential measurements in isolated ventricular cardiomyocytes", "assay_type": "cell-based", "conditions": "100 nM", "from_the_text": "as §2\nThe action potential (AP) contour provides a first-line estimate of the integrated function of membrane ion channels and its changes may disclose ancillary actions, potentially resulting in untoward effects of the compound. To increase sensitivity of the AP contour as a reporter, effects on the rate-dependency of AP parameters were also tested, thus providing a multiparametric (more stringent) approach.\nAPs were recorded in normal Tyrode's solution at 36.5° C. The following parameters were measured at 4 stimulation rates (0.5-1-2-4 Hz): diastolic membrane potential (Edlast), maximum depolarization velocity (dV/dtmax), action potential duration (APD at 90%, 50% and 20% of repolarization), time constant (τ) of APD adaptation after a step change in stimulation rate. Short term APD variability (STV) during steady-state pacing, an index of repolarization stability, was measured as the sum of absolute ortogonal deviations from the identity line in the APDnfAPDn+1 plot (Poincare plot) (Altomare C et al, Circulation A&E 2015; 8:1265-1275)."}, "STZ diabetic rats": {"system": "STZ diabetic rats", "assay": "Haemodynamics in streptozotocin diabetic rats (echocardiography)", "assay_type": "in vivo, rat", "conditions": "20 mg/kg os, after treatment, mean ± SD, n = 12", "experimental": "Sprague Dawley male rats (150-175 g) were made diabetic by a single injection into the tail vein of a solution of streptozotocin (STZ, 50 mg/kg, Sigma-Aldrich), freshly prepared in 0.1 M sodium citrate buffer, pH 4.5. Control rats received citrate buffer. Fasting glycaemia was measured after 1 week and rats with values >400 mg/dl were considered diabetic.\nEight-nine weeks after STZ injection, rats were submitted to transthoracic echocardiographic and Doppler evaluation performed under pentobarbital anesthesia. Two-dimensionally guided M-mode recordings were used to obtain short-axis measurements of left ventricular end-diastolic diameter (LVEDD), left ventricular end-systolic diameter (LVESD), posterior (PW) and septal (SW) diastolic wall thickness according to the American Society of Echocardiography guidelines (Lang R M et al. Eur J Echocardiography 2006; 7:79-108). Fractional shortening was calculated as FS=(LVEDD-LVESD)/LVEDD. Relative wall thickness was calculated as PWTd+IVSTd/LVEDD.\nMitral inflow was measured by pulsed Doppler at the tips of mitral leaflets from an apical 4-chamber view to obtain early and late filling velocities (E, A) and deceleration time of early filling velocity (DT). The deceleration slope was calculated as E/DT ratio. The mitral deceleration index was calculated as DT/E ratio.\nTissue Doppler Imaging (TDI) was evaluated from the apical 4-chamber view to record septal mitral annular movements, i.e., peak myocardial systolic (s′) and early and late diastolic velocity (e′ and a′).\nCompound CVie 101 was orally administered to STZ injected rats at the dose of 20 mg/kg and echocardiographic parameters were measured after 1 h."}}}
{"smiles": "C[C@]12CC[C@H](O)C[C@H]1CCC1C2CC[C@]2(C)[C@@H](c3c[nH]cn3)CC[C@]12O", "note": "(stereo partly drawn) [CVie 101, 3β-hydroxy-5β-10β-methyl-13β-methyl-14β-hydroxy-17β-(imidazol-4-yl)androstane]", "values": [{"measurement": "inhibition at 10 µM", "setting": "Adrenergic α1A", "value": 1, "unit": "%"}, {"measurement": "inhibition at 10 µM", "setting": "Adenosine A1", "value": -4, "unit": "%"}, {"measurement": "rate of Ca2+ transient (CaT) increment during SR reloading", "setting": "[1]; FIG. 1A, 1C", "value": "increased"}, {"measurement": "time constant of cytosolic Ca2+ decay within each pulse (τdecay)", "setting": "[1]; FIG. 1B, 1D", "value": "decreased"}, {"measurement": "inhibition at 10 µM", "setting": "Sigma σ2", "value": 30, "unit": "%"}, {"measurement": "inhibition at 10 µM", "setting": "Glucocorticoid", "value": 10, "unit": "%"}, {"measurement": "inhibition at 10 µM", "setting": "[2]", "value": 5, "unit": "%"}, {"measurement": "inhibition at 10 µM", "setting": "Insulin", "value": -7, "unit": "%"}, {"measurement": "% inhib", "setting": "[3]", "value": "−8", "unit": "%"}, {"measurement": "inhibition at 10 µM", "setting": "Adrenergic β1", "value": -4, "unit": "%"}, {"measurement": "short term APD variability (STV)", "setting": "[4]; 0.5-1-2-4 Hz separately or pooled, FIG. 3", "value": "unaffected"}, {"measurement": "diastolic membrane potential (Ediast)", "setting": "[4]; 0.5-1-2-4 Hz, FIG. 2A", "value": "did not affect"}, {"measurement": "maximum depolarization velocity (dV/dtmax)", "setting": "[4]; FIG. 2B", "value": "did not affect"}, {"measurement": "action potential duration (APD at 90%, 50% and 20% of repolarization) and its cycle-length dependency", "setting": "[4]; FIG. 2C", "value": "did not affect"}, {"measurement": "time constant of APD adaptation after a step change in cycle length", "setting": "[4]; FIG. 2D", "value": "not shortened"}, {"measurement": "A (late filling velocity of mitral inflow)", "setting": "STZ diabetic rats", "value": "0.76 ± 0.17", "unit": "m/s"}, {"measurement": "A′ (TDI late relaxation velocity)", "setting": "STZ diabetic rats", "value": "28.7 ± 6.6", "unit": "cm/s"}, {"measurement": "CO (cardiac output)", "setting": "STZ diabetic rats", "value": "219.0 ± 76.7", "unit": "mL/min"}, {"measurement": "DT (deceleration time of E wave)", "setting": "STZ diabetic rats", "value": "47.7 ± 4.8", "unit": "ms"}, {"measurement": "DT/E (mitral deceleration index)", "setting": "STZ diabetic rats", "value": "51.0 ± 10.2", "unit": "ms·s/m"}, {"measurement": "E (early filling velocity of mitral inflow)", "setting": "STZ diabetic rats", "value": "0.96 ± 0.14", "unit": "m/s"}, {"measurement": "E/A (index of LV function)", "setting": "STZ diabetic rats", "value": "1.29 ± 0.22"}, {"measurement": "E/DT (deceleration slope)", "setting": "STZ diabetic rats", "value": "20.3 ± 4.1", "unit": "m/s2"}, {"measurement": "E/e′ (index of LV filling pressure)", "setting": "STZ diabetic rats", "value": "38.0 ± 4.9"}, {"measurement": "E′ (TDI early relaxation velocity)", "setting": "STZ diabetic rats", "value": "25.2 ± 1.9", "unit": "cm/s"}, {"measurement": "FS (fractional shortening)", "setting": "STZ diabetic rats", "value": "45.1 ± 3.4", "unit": "%"}, {"measurement": "HR (heart rate)", "setting": "STZ diabetic rats", "value": "262 ± 48.1", "unit": "beat/min"}, {"measurement": "SV (stroke volume)", "setting": "STZ diabetic rats", "value": "0.82 ± 0.21", "unit": "ml/beat"}, {"measurement": "S′ (TDI contraction velocity)", "setting": "STZ diabetic rats", "value": "23.8 ± 3.6", "unit": "cm/s"}]}
